{
  "source": "paper PMC4986129",
  "about": "“A Peroxidase-linked Spectrophotometric Assay for the Detection of Monoamine Oxidase Inhibitors” (Iranian Journal of Pharmaceutical Research : IJPR, 2016)",
  "molecular_target": "T1, MAO-B (Rattus norvegicus, UniProt P19643)",
  "T1 construct": "gene Maob",
  "T1 sequence (P19643 2-520)": "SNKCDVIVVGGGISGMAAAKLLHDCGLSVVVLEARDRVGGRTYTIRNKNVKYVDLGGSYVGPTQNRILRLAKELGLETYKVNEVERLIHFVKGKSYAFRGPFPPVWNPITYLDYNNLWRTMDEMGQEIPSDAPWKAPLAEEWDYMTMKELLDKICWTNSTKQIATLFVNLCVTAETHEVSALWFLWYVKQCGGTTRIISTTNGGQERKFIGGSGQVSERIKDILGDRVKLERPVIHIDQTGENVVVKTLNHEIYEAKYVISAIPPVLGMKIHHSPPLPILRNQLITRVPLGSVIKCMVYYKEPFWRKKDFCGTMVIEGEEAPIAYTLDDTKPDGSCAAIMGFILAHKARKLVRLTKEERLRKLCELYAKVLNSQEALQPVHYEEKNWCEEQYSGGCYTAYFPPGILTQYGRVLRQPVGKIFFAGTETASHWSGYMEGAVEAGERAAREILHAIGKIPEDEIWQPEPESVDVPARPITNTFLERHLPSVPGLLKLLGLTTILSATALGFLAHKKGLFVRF",
  "assay": "peroxidase-linked spectrophotometric assay, crude rat liver mitochondria with MAO-A blocked by clorgyline",
  "assay_type": "biochemical",
  "data": [
    {"smiles": "C#CCN(C)Cc1ccccc1", "note": "[pargyline]", "values": [
      {"measurement": "IC50", "value": "13.4 ± 0.16", "unit": "nM"}
    ]}
  ]
}
